Here are results for one compound from patent publication US20220305052A1, “METERED DOSE FOR DISORDERS IN OR AROUND THE EYE” (Azura Ophthalmics Ltd., priority 2019, published 2022).

Like-named read-outs stand apart in the source and are kept apart here. A value given as a limit tells only on which side of the number the result lay.

The test system of data set [1] is lower eyelid of the right eye. On the procedure: The eye was treated with lubricants and local NSAID, and the keratitis resolved within 48 hours.
Data set [2] concerns lower eyelid of the rabbits. The note with it: rabbit, in vivo. On the procedure:
The composition is prepared by the combination of selenium disulfide (SeS2) in combination with Petrolatum base (and in the absence of surface acting agents). Compositions comprising various concentrations of selenium disulfide are prepared, such as 0.1 wt. %, 0.5 wt. %, 1 wt. %, 1.5 wt. %, 2 wt. %, and 2.5 wt. %.
Various compositions prepared as described above are administered to the eye or eyelid (e.g., margin thereof) of albino rabbits. Various compositions are administered to distinct cohorts using various treatment protocols, such as based on frequency of administration (e.g., once daily, twice daily, every other day, and once weekly) and volume of administration (e.g., <25 μL or >25 μL per administration). Compositions lacking selenium disulfide are administered to a separate cohort to establish a control.
Albino rabbits are evaluated, and an accurate volume of the composition is ejected from a device (e.g., micropipette) and is delivered to the lower eyelid of the rabbits (FIG. 2). […] In one example, the volume is ˜25 μL (equivalent to 20 mg in weight). The rabbits are examined daily.

In data set [3] the test system is seborrheic blepharitis patients. The note with it: cited from earlier work.
The conditions of data set [4]: 5 μL, twice-weekly or once-daily, 3 months.
The subject of the next data set is lower eyelid. As to conditions: rabbit, in vivo. The source says:
On a subsequent study to Example 6, concentrations ranging from 0.5 wt. % to 2.5 wt. % were used on New-Zealand rabbits, once daily to twice weekly for 28 days.

The test system of the next data set is rabbit dermis. As to conditions: in vivo; cited from earlier work.

Consider `S=[Se]=S` [SeS2, selenium disulfide], for which, in data set [1] (2.5 wt. % SeS2 with petrolatum, 25 μL (20 mg), one healthy person), the “time until pain was reported” value was “About 4 hours”. Moreover, the “finding on clinical examination” value in data set [1] (2.5 wt. % SeS2 with petrolatum, 25 μL (20 mg), multiple punctate over the center exposed part of the cornea) is given as “keratitis was observed”. For the same compound, the “time to resolution of keratitis” value in data set [1] (2.5 wt. %, 25 μL, eye treated with lubricants and local NSAID) is ≤ 48 h. Besides, in data set [2], the “animals with corneal staining” value was 5/6; the “clinical or microscopic findings” value is on record as “no clinical or microscopic findings”; the “signs of keratitis, including red and swollen eyelids” value is given as “all animals showed signs of keratitis”. In addition, the “tolerability of ointment on the lids” value in data set [3] (0.5 weight percent ointment (Abbott), all patients complained of burning of the conjunctiva (Rychener)) is listed as “too strong”. Also, in data set [3] (human, in vivo), the epithelial keratitis is given as 6 cases; the “epithelial keratitis persisting as long as a week” value is given as 1 cases; the “epithelial keratitis persisting for a matter of days” value is given as 2 cases; the “epithelial keratitis, transient” value was 4 cases. In data set [3] (human, in vivo), the “keratitis, conjunctivitis with erythematous and swollen lids” value is on record as “Two”; the “patients developing moderately severe conjunctivitis” value was 1%; the “side effect across the studies” value was “self-limiting keratitis”. Also, in data set [4] (0.1 wt. %, nine patients), the “safety and tolerability (independent Data Review Committee)” value (shortened to “safety and tolerability”) is “safe and well tolerated”. The “safety and tolerability” value in data set [4] (0.5 wt. %, ten patients) was “safe and well tolerated”. The “safety and tolerability” value in data set [4] (1 wt. %, nine patients) is “safe and well tolerated”. The “ophthalmic observations compared with Example 6” value with lower eyelid is listed as “safer”. In the data set with rabbit dermis, the dermal irritation entry was “did not appear to be irritant to rabbit dermis”.
